Patent US6878736B1, “Histamine H3 receptor ligands” (James Black Foundation Limited, priority 1998, dated 2005)
Where a name gives a salt, the structure may show the parent alone.

How the values were obtained:
Histamine H3 receptor [1] = target: T1, Histamine H3 receptor (Cavia porcellus, UniProt Q9JI35); assay: Histamine H3 functional assay, guinea pig ileum (ileal longitudinal muscle, myenteric plexus); design: species or system tissue; conditions: antagonist affinity from rightward shift of R-(α)-methylhistamine E/[A] curves (Schild), typical variance ±0.15 log units; for Kb: read-out: pKb (Guinea pig ileum) (converted)
How it was run: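 Longitudinal muscle–myenteric plexus strips from male Dunkin-Hartley guinea pigs (250-300 g), Krebs-Henseleit buffer at 37±1° C, field-stimulated at 0.1 Hz, 0.5 msec, supramaximal voltage; isometric recording. Cumulative R-(α)-methylhistamine E/[A] curves as % inhibition of twitch height; antagonist affinity by Schild analysis of rightward shift.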

Histamine H3 receptor [2] = target: T1, Histamine H3 receptor; assay: Histamine H3 radioligand binding assay, guinea pig cortex ([3H]-R-α-methylhistamine); conditions: guinea pig cortex membranes, competition with 1 nM [3H]-R-α-methylhistamine; for Ki: read-out: pKi (Guinea pig cortex) (converted)
How it was run: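 Male Dunkin Hartley guinea pig cortical membranes incubated 165 min at 21±3 °C in 20 mM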

T1 sequence (Q9JI35 whole entry): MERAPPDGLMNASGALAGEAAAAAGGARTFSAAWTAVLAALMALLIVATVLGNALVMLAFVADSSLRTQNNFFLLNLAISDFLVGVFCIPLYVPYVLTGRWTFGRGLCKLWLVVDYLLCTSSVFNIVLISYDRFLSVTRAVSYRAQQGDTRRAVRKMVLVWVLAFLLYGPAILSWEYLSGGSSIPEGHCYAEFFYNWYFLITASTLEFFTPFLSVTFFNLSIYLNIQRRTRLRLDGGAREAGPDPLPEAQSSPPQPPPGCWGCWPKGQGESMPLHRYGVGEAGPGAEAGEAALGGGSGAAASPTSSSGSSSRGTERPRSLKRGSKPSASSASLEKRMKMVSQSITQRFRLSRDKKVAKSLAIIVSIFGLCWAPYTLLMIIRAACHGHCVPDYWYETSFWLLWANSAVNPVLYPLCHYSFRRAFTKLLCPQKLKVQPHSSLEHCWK

SMILES	Kb (Histamine H3 receptor [1]) [nM]	Ki (Histamine H3 receptor [2]) [nM]	pKb (Guinea pig ileum) (Histamine H3 receptor [1])	pKi (Guinea pig cortex) (Histamine H3 receptor [2])	pKi (Guinea pig cortex) (Histamine H3 receptor [2]; bis-hydrochloride)
Cl.Cl.N=C(NCCOCCN1CCCC1)NCC12CC3CC(CC(C3)C1)C2 [Example 59, N-Adamantan-1-yl-methyl-N′-(2-(2-pyrrolidin-1-yl-ethoxy)-ethyl)-guanidine bis-hydrochloride]	–	–	7.0	8.0	–
Cl.Cl.N=C(NCCCCCN1CCCCC1)NCC12CC3CC(CC(C3)C1)C2 [Example 60, N-Adamantan-1-yl-methyl-N′-(5-piperidin-1-yl-pentyl)-guanidine bis-hydrochloride]	–	–	8.1	8.0	–
Cl.Cl.N=C(NCCCCCN1CCCCCC1)NCC12CC3CC(CC(C3)C1)C2 [Example 61, N-Adamantan-1-yl-methyl-N′-(5-azepan-1-yl-pentyl)-guanidine bis-hydrochloride]	–	–	7.8	8.1	–
Cl.Cl.N=C(NCCCCCN1CCCCCCC1)NCC12CC3CC(CC(C3)C1)C2 [Example 62, N-Adamantan-1-yl-methyl-N′-(5-azocan-1-yl-pentyl)-guanidine bis-hydrochloride]	–	–	7.4	7.5	–
CN1CCN(CCCCCNC(=N)NCC23CC4CC(CC(C4)C2)C3)CC1.Cl.Cl.Cl [Example 63, N-Adamantan-1-yl-methyl-N′-(5-(4-methyl-piperazin-1-yl)-pentyl)-guanidine tris-hydrochloride]	–	–	7.4	7.7	–
Cl.Cl.N=C(NCCCCCCN1CCCC1)NCC12CC3CC(CC(C3)C1)C2 [Example 77, N-Adamantan-1-yl-methyl-N-(6-pyrrolidin-1-yl-hexyl)-guanidine bis-hydrochloride]	–	–	8.0	–	8.2
CN1CCCC1CCNS(=O)(=O)c1ccc2ccccc2c1 (stereo not drawn) [Example 89, N-(2-(1-Methyl-pyrrolidin-2-yl)-ethyl)-2-naphthalenesulfonamide]	631	100	–	–	–
CN1CCC[C@H]1CCCNS(=O)(=O)c1ccc(Cl)cc1 [Example 98, N-(3-(1-Methyl-pyrrolidin-2S-yl)-propyl)-(4-chlorophenyl)-sulfonamide]	794	794	–	–	–
CN1CCC[C@H]1CCCNS(=O)(=O)Cc1ccc(Cl)cc1 [Example 99]	316	200	–	–	–
CN1CCC[C@H]1CCCNS(=O)(=O)Cc1ccc(Br)cc1 [Example 101, N-(3-(1-Methyl-pyrrolidin-2S-yl)-propyl)-(4-bromophenyl)-methanesulfonamide]	1000	251	–	–	–
CN1CCC[C@H]1CCCNS(=O)(=O)CCc1ccc(Cl)cc1 [Example 102, N-(3-(1-Methyl-pyrrolidin-2S-yl)-propyl)-2-(4-chlorophenyl)-ethanesulfonamide]	316	63.1	–	–	–
CN1CCCC1CCCCNS(=O)(=O)Cc1ccc(Cl)cc1 (stereo not drawn) [Example 104, N-(4-(1-Methyl-pyrrolidin-2S-yl)-butyl)-(4-chlorophenyl)-methanesulfonamide]	398	398	–	–	–
CN1CCC[C@H]1CCCNS(=O)(=O)NCc1ccc(Cl)cc1 [Example 107, N-(4-Chlorobenzyl)-N′-(3-(1-methyl-pyrrolidin-2S-yl)-propyl)-sulfamide]	158	100	–	–	–
CN1CCC[C@H]1CCCNS(=O)(=O)NCC1CCCCC1 [Example 110, N-Cyclohexyl-methyl-N′-(3-(1-methyl-pyrrolidin-2S-yl)-propyl)-sulfamide]	2510	501	–	–	–
CN1CCC[C@H]1CCCNS(=O)(=O)Nc1ccc(Cl)cc1 [Example 112, N-(4-Chlorophenyl)-N′-(3-(1-methyl-pyrrolidin-2S-yl)-propyl)-sulfamide]	1580	398	–	–	–
CN1CCC[C@H]1CCCNS(=O)(=O)NCc1ccc(Br)cc1 [Example 113, N-(4-Bromobenzyl)-N′-(3-(1-methyl-pyrrolidin-2S-yl)-propyl)-sulfamide]	200	100	–	–	–
CN1CCC[C@H]1CCCNS(=O)(=O)NCc1ccc(I)cc1 [Example 114, N-(4-Iodobenzyl)-N′-(3-(1-methyl-pyrrolidin-2S-yl)-propyl)-sulfamide]	100	316	–	–	–
CN1CCC[C@H]1CCNS(=O)(=O)NCc1ccc(Cl)cc1 [Example 115, N-(4-Chlorobenyl)-N′-(2-(1-methyl-pyrrolidin-2S-yl)-ethyl)-sulfamide]	398	501	–	–	–
CC(C)CN1CCC[C@H]1CCCNS(=O)(=O)NCc1ccc(Cl)cc1 [Example 119]	2000	15.8	–	–	–

Continued, in another order:

Kb (Histamine H3 receptor [1]) [nM]	Ki (Histamine H3 receptor [2]) [nM]	SMILES	pKb (Guinea pig ileum) (Histamine H3 receptor [1])	pKi (Guinea pig cortex) (Histamine H3 receptor [2])	pKi (Guinea pig cortex) (Histamine H3 receptor [2]; bis-hydrochloride)
631	63.1	CNC(=NCCCN1CCCC1)NCc1ccc(Cl)cc1 [Example 64, N-(4-Chlorobenzyl)-N′-methyl-N″-(3-pyrrolidin-1-yl-propyl)-guanidine]	–	–	–
79.4	5.01	CCCCNC(=N)NCCCCCN1CCCC1 [Example 65, N-Butyl-N′-(5-pyrrolidin-1-yl-pentyl)-guanidine]	–	–	–
39.8	2.51	CC(C)CCNC(=N)NCCCCCN1CCCC1 [Example 66]	–	–	–
50.1	2.51	CCC(C)CNC(=N)NCCCCCN1CCCC1 (stereo not drawn) [Example 67, N-(2-Methyl-butyl)-N′-(5-pyrrolidin-1-yl-pentyl)-guanidine bis-hydrochloride]	–	–	–
12.6	1	N=C(N)N(CCCCCN1CCCC1)Cc1ccc(Cl)cc1 [Example 69, N-(4-Chlorobenzyl)-N-(5-pyrrolidin-1-yl-pentyl)-guanidine bis-hydrochloride]	–	–	–
3.98	5.01	N=C(N)N(CCCCCCN1CCCC1)Cc1ccc(Cl)cc1 [Example 70, N-(4-Chlorobenzyl)-N-(6-pyrrolidin-1-yl-hexyl)-guanidine bis-hydrochloride]	–	–	–
3.16	5.01	N=C(N)N(CCCCCCN1CCCCC1)Cc1ccc(Cl)cc1 [Example 72, N-(4-Chlorobenzyl)-N-(6-piperidin-1-yl-hexyl)-guanidine bis-hydrochloride]	–	–	–
15.8	1.58	N=C(N)N(CCCCCCN1CCCC1)Cc1ccccc1 [Example 73, N-Benzyl-N-(6-pyrrolidin-1-yl-hexyl)-guanidine bis-hydrochloride]	–	–	–
12.6	7.94	N=C(N)N(CCCCCCN1CCCC1)Cc1ccc(Br)cc1 [Example 74, N-(4-Bromobenzyl)-N-(6-pyrrolidin-1-yl-hexyl)-guanidine bis-hydrochloride]	–	–	–
126	25.1	C[C@@H](c1ccccc1)N(CCCCCN1CCCC1)C(=N)N [Example 75, N-(1-(S)-Phenyl-ethyl)-N-(5-pyrrolidin-1-yl-pentyl)-guanidine bis-hydrochloride]	–	–	–
7.94	1.58	Cc1ccccc1CN(CCCCCCN1CCCC1)C(=N)N [Example 76, N-(2-Methylbenzyl)-N-(6-pyrrolidin-1-yl-hexyl)-guanidine bis-hydrochloride]	–	–	–
31.6	79.4	N=C(N)N(CCCCCCN1CCCC1)CCC12CC3CC(CC(C3)C1)C2 [Example 78, N-(2-Adamantan-1-yl-ethyl)-N-(6-pyrrolidin-1-yl-hexyl)-guanidine bis-hydrochloride]	–	–	–
1260	126	O=S(=O)(NCCN1CCCC1)c1ccc2ccccc2c1 [Example 81, N-(2-Pyrrolidin-1-yl-ethyl)-2-naphthalenesulfonamide]	–	–	–
1000	316	O=S(=O)(NCCCN1CCCC1)c1ccc2ccccc2c1 [Example 82, N-(3-Pyrrolidin-1-yl-propyl)-2-naphthalenesulfonamide]	–	–	–
631	251	O=S(=O)(NCCCCN1CCCC1)c1ccc2ccccc2c1 [Example 83, N-(4-Pyrrolidin-1-yl-butyl)-2-naphthalenesulfonamide]	–	–	–
794	501	O=S(=O)(NCCN1CCCCC1)c1ccc2ccccc2c1 [Example 84, N-(2-Piperidin-1-yl-ethyl)-2-naphthalenesulfonamide]	–	–	–
1260	631	O=S(=O)(CCCCN1CCCC1)c1ccc2ccccc2c1 [Example 88]	–	–	–
501	126	CN1CCC[C@H]1CCCNS(=O)(=O)c1ccc2ccccc2c1 [Example 91, N-(3-(1-Methyl-pyrrolidin-2S-yl)-propyl)-2-naphthalenesulfonamide]	–	–	–
501	200	CN1CCC[C@H]1CCCNS(=O)(=O)Cc1ccccc1 [Example 100, N-(3-(1-Methyl-pyrrolidin-2S-yl)-propyl)-phenyl-methanesulfonamide]	–	–	–
316	126	CN1CCC[C@H]1CCCNS(=O)(=O)CCCc1ccc(Cl)cc1 [Example 103, N-(3-(1-Methyl-pyrrolidin-2S-yl)-propyl)-3-(4-chlorophenyl)-propanesulfonamide]	–	–	–
501	398	CN1CCCC1CCCCCNS(=O)(=O)Cc1ccc(Cl)cc1 (stereo not drawn) [Example 105, N-(5-(1-Methyl-pyrrolidin-2S-yl)-pentyl)-(4-chlorophenyl)-methanesulfonamide]	–	–	–
631	1000	O=S(=O)(Cc1ccc(Cl)cc1)NCCCN1CCCC1 [Example 106, N-(3-Pyrrolidin-1-yl-propyl)-(4-chlorophenyl)-methanesulfonamide]	–	–	–
200	126	CN1CCCC1CCCCNS(=O)(=O)NCc1ccc(Cl)cc1 (stereo not drawn) [Example 116, N-(4-Chlorobenzyl)-N′-(4-(1-methyl-pyrrolidin-2S-yl)-butyl)-sulfamide]	–	–	–
